Biological target: T1, TmMre11 (Thermotoga maritima Mre11 (1–324)) (Thermotoga maritima, UniProt Q9X1X0)
T1 sequence (Q9X1X0 1-324): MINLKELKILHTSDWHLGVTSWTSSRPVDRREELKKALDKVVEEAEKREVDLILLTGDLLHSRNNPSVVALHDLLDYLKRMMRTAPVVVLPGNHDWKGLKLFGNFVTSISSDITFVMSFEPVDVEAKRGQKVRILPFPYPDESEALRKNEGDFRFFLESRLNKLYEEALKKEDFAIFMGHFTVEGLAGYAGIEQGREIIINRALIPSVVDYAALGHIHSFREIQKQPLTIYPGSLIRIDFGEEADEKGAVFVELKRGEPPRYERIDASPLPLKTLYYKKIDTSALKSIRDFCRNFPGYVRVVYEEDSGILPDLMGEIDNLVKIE
Assay: exonuclease assay
Assay type: biochemical
Conditions: conditions only in supplement

**Q.** For `N=C1NC(=O)/C(=C/c2ccc(O)cc2)S1` [mirin], which “inhibition of exonuclease activity” value is on record?
**A.** Its value is “Nuclease assays using TmMre11”.
